Legend:
Experiment in all cases: Kinase selectivity, DiscoverX scanMAX Kinase assay panel (% control)
Format in all cases: binding
[1] = target: T1, kinases of the scanMAX Kinase assay panel (Homo sapiens, UniProt P00533, T790M); conditions: EGFR(T790M); 1 uM
T1 construct: purchased DiscoverX Co. (contract measurement) scanMAX Kinase assay panel
Outline: (§1)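 Compounds were tested at 1 uM (in DMSO) against each panel kinase. % control was calculated as (compound − positive control)/(negative control − positive control)×100, where the positive control gives 0% and DMSO gives 100%. Activity toward a kinase was called at % control <35%.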

[2] = target: T2, kinases of the scanMAX Kinase assay panel (Homo sapiens, UniProt P21802); conditions: FGFR2; 1 uM
T2 construct: purchased DiscoverX Co. (contract measurement) scanMAX Kinase assay panel
T2 sequence (P21802 22-821): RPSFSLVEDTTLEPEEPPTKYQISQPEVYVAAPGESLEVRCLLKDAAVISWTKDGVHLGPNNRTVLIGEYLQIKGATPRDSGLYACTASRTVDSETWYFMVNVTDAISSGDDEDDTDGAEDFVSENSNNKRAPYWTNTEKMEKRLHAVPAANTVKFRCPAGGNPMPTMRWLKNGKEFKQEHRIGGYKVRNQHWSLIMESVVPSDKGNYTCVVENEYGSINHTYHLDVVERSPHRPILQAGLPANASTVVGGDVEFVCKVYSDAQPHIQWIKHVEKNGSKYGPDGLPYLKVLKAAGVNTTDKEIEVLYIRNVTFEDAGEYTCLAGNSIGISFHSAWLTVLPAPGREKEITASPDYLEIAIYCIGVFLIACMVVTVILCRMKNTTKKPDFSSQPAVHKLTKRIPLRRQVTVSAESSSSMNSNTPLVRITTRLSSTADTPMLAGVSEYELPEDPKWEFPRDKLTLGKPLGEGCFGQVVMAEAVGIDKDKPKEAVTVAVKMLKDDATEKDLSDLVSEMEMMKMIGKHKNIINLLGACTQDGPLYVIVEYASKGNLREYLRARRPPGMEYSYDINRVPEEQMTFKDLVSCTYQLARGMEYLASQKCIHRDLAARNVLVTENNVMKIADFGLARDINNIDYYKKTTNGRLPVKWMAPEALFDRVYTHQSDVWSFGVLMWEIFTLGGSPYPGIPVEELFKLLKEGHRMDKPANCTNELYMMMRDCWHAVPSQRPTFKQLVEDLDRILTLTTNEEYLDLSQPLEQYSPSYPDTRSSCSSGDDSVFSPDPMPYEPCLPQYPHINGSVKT
Outline: as §1

[3] = target: T3, kinases of the scanMAX Kinase assay panel (Homo sapiens, UniProt P25098); conditions: GRK2; 1 uM
T3 construct: purchased DiscoverX Co. (contract measurement) scanMAX Kinase assay panel
T3 sequence (P25098 1-689): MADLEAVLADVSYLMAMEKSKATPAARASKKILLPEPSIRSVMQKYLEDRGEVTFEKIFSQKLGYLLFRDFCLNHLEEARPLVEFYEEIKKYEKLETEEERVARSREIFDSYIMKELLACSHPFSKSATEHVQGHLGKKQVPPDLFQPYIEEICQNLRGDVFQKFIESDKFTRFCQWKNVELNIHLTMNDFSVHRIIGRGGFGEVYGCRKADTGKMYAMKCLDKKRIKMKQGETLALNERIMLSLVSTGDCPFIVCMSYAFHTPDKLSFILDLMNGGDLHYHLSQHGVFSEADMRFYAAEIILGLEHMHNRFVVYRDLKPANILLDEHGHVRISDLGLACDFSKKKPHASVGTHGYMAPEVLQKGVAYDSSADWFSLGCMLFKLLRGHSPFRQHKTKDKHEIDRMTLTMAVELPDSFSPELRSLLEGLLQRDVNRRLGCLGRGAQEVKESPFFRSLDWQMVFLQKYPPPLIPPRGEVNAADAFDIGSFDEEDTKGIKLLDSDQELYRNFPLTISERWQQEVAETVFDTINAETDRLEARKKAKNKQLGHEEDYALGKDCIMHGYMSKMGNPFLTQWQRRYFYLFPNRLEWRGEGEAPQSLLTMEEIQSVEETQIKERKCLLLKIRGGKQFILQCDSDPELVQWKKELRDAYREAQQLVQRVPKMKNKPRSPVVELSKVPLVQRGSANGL
Outline: as §1

[4] = target: T4, kinases of the scanMAX Kinase assay panel (Homo sapiens, UniProt P42336); conditions: PIK3CA; 1 uM
T4 construct: purchased DiscoverX Co. (contract measurement) scanMAX Kinase assay panel
T4 sequence (P42336 whole entry): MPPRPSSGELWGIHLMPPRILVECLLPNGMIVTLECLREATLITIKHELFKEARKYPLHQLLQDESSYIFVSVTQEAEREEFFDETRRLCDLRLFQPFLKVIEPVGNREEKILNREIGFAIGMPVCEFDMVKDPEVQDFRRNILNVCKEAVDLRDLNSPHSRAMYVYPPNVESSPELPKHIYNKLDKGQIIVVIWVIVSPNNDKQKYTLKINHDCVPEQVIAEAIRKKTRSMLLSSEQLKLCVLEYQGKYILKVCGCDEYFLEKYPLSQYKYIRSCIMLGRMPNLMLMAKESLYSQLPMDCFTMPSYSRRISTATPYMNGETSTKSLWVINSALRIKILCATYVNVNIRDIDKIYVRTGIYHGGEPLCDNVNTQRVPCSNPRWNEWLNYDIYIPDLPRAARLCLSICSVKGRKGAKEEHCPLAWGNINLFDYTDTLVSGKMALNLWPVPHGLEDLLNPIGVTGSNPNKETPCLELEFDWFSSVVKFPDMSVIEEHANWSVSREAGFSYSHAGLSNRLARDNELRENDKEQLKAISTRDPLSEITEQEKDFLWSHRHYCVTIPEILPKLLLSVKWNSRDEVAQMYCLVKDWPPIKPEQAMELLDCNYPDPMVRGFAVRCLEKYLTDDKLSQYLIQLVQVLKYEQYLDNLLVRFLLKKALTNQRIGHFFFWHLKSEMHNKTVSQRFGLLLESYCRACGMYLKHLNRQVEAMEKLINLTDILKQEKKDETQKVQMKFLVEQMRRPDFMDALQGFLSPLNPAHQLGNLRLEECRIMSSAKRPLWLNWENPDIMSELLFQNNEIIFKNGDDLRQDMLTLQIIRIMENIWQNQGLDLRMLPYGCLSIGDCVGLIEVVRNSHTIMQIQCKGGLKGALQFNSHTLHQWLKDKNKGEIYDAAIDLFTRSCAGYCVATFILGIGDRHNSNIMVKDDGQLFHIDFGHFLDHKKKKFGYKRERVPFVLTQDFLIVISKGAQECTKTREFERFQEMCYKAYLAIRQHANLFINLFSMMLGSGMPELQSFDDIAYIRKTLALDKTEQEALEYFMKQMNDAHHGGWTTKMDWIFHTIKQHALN
Outline: as §1

[5] = target: T5, kinases of the scanMAX Kinase assay panel (Homo sapiens, UniProt P42336, E542K); conditions: PIK3CA(E542K); 1 uM
T5 construct: purchased DiscoverX Co. (contract measurement) scanMAX Kinase assay panel
T5 sequence (P42336 whole entry E542K): as the sequence (P42336 whole entry) above, with E542K counted along it
Outline: as §1

[6] = target: T6, kinases of the scanMAX Kinase assay panel (Homo sapiens, UniProt P48730); conditions: CSNK1D; 1 uM
T6 construct: purchased DiscoverX Co. (contract measurement) scanMAX Kinase assay panel
T6 sequence (P48730 whole entry): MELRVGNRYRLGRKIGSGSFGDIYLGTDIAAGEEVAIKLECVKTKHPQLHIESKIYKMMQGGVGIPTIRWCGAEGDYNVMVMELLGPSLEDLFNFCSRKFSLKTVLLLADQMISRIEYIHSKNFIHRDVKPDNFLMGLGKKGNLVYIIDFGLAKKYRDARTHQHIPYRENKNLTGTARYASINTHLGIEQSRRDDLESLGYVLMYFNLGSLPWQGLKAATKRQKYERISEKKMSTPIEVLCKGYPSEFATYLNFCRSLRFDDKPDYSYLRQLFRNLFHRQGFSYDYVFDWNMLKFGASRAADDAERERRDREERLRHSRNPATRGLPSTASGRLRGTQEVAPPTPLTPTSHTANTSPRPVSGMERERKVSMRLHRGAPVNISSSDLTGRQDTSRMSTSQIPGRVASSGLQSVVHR
Outline: as §1

[7] = target: T7, kinases of the scanMAX Kinase assay panel (Homo sapiens, UniProt Q13163); conditions: MEK5; 1 uM
T7 construct: purchased DiscoverX Co. (contract measurement) scanMAX Kinase assay panel
T7 sequence (Q13163 1-448): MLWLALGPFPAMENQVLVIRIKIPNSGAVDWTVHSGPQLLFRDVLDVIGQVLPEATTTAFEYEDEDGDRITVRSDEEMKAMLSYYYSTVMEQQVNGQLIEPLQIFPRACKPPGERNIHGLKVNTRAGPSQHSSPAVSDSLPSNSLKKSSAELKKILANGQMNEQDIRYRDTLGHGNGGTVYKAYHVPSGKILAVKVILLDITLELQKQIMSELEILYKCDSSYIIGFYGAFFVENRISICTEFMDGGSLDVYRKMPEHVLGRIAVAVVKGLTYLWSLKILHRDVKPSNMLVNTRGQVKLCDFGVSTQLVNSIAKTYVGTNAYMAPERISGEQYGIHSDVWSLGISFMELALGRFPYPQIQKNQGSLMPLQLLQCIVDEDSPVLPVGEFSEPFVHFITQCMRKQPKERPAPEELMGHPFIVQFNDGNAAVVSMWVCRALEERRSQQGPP
Outline: as §1

[8] = target: T8, kinases of the scanMAX Kinase assay panel (Homo sapiens, UniProt Q9BZL6); conditions: PRKD2; 1 uM
T8 construct: purchased DiscoverX Co. (contract measurement) scanMAX Kinase assay panel
T8 sequence (Q9BZL6 1-878): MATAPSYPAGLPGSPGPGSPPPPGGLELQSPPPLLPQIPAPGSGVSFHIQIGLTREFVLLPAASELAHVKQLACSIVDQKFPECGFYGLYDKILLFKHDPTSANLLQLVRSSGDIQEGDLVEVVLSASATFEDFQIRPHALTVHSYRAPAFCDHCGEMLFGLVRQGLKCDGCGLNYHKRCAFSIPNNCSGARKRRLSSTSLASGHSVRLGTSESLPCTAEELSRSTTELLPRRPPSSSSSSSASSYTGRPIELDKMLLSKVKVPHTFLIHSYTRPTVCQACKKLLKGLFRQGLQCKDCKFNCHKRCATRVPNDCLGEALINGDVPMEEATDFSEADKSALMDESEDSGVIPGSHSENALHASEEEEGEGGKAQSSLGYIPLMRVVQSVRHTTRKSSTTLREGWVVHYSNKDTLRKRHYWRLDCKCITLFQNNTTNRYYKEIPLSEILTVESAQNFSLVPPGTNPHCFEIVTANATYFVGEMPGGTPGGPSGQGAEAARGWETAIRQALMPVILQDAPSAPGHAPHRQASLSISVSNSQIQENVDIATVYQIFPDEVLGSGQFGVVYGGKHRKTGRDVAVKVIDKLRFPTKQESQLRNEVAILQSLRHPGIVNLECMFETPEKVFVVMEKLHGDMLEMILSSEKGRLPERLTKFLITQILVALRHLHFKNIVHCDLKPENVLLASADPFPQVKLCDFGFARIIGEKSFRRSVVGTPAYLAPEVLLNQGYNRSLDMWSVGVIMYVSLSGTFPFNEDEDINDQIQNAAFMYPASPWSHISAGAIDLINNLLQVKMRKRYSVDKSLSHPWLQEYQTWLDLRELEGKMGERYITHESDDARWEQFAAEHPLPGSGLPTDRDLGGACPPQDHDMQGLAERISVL
Outline: as §1

[9] = target: T9, kinases of the scanMAX Kinase assay panel (Mycobacterium tuberculosis, UniProt P9WI81); conditions: read-out: % control
T9 construct: purchased DiscoverX Co. (contract measurement) scanMAX Kinase assay panel
T9 sequence (P9WI81 whole entry): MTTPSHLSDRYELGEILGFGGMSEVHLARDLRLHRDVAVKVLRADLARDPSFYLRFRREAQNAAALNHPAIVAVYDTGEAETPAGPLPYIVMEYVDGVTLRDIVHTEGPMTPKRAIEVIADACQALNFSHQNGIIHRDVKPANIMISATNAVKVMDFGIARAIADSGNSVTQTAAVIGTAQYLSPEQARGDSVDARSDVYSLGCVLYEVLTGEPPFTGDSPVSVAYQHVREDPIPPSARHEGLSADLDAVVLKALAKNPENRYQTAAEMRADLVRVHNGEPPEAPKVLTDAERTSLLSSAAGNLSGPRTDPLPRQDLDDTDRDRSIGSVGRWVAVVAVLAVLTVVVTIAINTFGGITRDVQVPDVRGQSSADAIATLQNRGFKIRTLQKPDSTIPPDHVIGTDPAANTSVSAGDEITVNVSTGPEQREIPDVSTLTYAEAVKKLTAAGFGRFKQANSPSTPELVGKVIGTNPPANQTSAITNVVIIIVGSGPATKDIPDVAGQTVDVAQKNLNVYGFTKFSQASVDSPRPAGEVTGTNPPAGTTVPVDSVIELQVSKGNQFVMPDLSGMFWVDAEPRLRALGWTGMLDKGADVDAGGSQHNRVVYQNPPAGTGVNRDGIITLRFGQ
Outline: as §1

T1 sequence (P00533 25-1210 T790M): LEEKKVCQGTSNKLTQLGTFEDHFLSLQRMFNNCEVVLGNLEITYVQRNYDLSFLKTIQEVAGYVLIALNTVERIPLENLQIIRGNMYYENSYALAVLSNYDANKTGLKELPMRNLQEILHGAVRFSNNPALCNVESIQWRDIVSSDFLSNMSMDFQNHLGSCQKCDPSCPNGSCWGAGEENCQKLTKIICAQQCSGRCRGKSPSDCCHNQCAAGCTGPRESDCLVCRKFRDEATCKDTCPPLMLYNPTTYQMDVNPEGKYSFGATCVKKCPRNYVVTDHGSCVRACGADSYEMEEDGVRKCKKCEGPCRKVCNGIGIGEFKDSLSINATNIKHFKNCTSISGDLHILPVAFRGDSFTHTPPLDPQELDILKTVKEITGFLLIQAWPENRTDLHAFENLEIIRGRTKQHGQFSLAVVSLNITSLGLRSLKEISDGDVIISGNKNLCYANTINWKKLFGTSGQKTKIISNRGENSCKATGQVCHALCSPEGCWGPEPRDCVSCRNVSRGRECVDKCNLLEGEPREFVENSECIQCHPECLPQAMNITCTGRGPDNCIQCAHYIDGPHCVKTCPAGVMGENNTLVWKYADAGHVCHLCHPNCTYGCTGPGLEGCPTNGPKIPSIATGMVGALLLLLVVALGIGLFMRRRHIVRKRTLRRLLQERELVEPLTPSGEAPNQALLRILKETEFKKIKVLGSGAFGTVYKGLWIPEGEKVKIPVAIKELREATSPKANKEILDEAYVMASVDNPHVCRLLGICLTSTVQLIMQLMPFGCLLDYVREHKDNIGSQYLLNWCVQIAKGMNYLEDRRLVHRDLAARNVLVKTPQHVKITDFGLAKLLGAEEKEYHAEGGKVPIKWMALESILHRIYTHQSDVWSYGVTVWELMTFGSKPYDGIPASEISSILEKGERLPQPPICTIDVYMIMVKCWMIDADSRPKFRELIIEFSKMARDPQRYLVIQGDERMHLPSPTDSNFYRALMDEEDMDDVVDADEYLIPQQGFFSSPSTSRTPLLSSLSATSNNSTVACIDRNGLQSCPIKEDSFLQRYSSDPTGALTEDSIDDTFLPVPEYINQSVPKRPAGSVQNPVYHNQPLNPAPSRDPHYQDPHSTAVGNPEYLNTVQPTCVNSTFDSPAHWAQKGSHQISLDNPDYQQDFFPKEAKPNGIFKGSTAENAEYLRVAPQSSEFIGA

Compound | remaining binding at 1 µM [1] | remaining binding at 1 µM [2] | remaining binding at 1 µM [3] | remaining binding at 1 µM [4] | remaining binding at 1 µM [5] | remaining binding at 1 µM [6] | remaining binding at 1 µM [7] | remaining binding at 1 µM [8] | remaining binding at 1 µM [9]
CNc1nc(Nc2ccc(C(=O)N3CCOCC3)cc2OC)nc2[nH]cc(C#N)c12 [Example 1, 2-((2-methoxy-4-(morpholine-4-carbonyl)phenyl)amino)-4-(methylamino)-7H-pyrrolo[2,3-d]pyrimidine-5-carbonitrile] | 61% | 95% | 97% | 87% | 74% | 5% | 47% | 28% | 90%
CC1(Nc2nc(Nc3cnn([C@H]4CCN(C5COC5)C[C@@H]4F)c3Cl)nc3[nH]cc(C#N)c23)CC1 [Example 52, 2-((5-chloro-1-((3S,4S)-3-fluoro-1-(oxetane-3-yl)piperidine-4-yl)-1H-pyrazole-4-yl)amino)((1-methylcyclopropyl)amino)-7H-pyrrolo[2,3-d]pyrimidine-5-carbonitrile] | 1.3% | 26% | 45% | 60% | 77% | 1% | 0.05% | 9.1% | 1.1%
CCNc1nc(Nc2ccc(C(=O)N3CCC(N4CCOCC4)CC3)cc2OC)nc2[nH]cc(C(F)(F)F)c12 [Example 104, (4-((4-(ethylamino)-5-(trifluoromethyl)-7H-pyrrolo[2,3-d]pyrimidine-2-yl)amino)-3-methoxyphenyl)(4-morpholinopiperidine-1-yl)methanone] | 41% | 96% | 96% | 99% | 83% | 2.6% | 74% | 16% | 83%

From patent US11208412B2 (DAEGU-GYEONGBUK MEDICAL INNOVATION FOUNDATION, priority 2017, dated 2021)
